Assay results published in US11976061B2, “Preparation of benzimidazolone derivatives as novel diacylglyceride O-acyltransferase 2 inhibitors” (Merck Sharp & Dohme LLC, priority 2020, dated 2024).
Where two headings read alike, the source gives them in different places.

Biological target: T1, human DGAT2 (hDGAT2) (Homo sapiens, UniProt Q96PD7)
T1 construct: made in house; host or cells: Sf-9 insect cells (baculovirus), membrane fraction
T1 sequence (Q96PD7 1-388): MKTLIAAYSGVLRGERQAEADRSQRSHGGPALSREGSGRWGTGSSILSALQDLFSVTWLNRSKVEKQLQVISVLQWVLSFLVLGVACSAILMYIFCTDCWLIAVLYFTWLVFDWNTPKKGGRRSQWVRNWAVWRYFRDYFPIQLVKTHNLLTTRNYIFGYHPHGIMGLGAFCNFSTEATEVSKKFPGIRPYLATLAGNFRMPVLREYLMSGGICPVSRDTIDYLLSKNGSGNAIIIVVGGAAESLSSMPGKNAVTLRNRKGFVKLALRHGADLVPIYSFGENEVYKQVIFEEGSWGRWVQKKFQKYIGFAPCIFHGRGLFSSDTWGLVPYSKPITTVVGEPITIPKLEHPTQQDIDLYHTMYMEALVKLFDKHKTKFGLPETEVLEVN
Test: DGAT2 Enzymatic Activity Assay
Format: biochemical
Conditions: membrane prep of Sf-9 cells expressing hDGAT2, 25 μM diolein, 5 μM 13C oleoyl-CoA, 13C18-triolein by LC/MS/MS
In short: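 Membranes from Sf-9 cells expressing untagged human DGAT2 (8 ng/μL) incubated at rt in 100 mM Tris·Cl pH 7.0, 20 mM MgCl2, 5% ethanol with 25 μM diolein and 5 μM 13C oleoyl-CoA. 13C18-triolein product quantified by LC/MS/MS against 13C21-triolein internal standard; IC50 by 4-parameter fit.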

Row | Compound | IC50 (read-out: DGAT2 IC50) [nM] | IC50 (read-out: Human DGAT2 IC50) [nM]
1 | CC(n1c(=O)n(-c2cc(OC(F)(F)F)ccc2F)c2ccc(C(=O)NC3(C)CCS(=O)(=O)CC3)cc21)C(C)(C)O (single isomer, unassigned) [Example 71b, 1-(2-fluoro-5-(trifluoromethoxy)phenyl)-3-(3-hydroxy-3-methylbutan-2-yl)-N-(4-methyl-1,1-dioxidotetrahydro-2H-thiopyran-4-yl)-2-oxo-2,3-dihydro-1H-benzo[d]imidazole-5-carboxamide] | 5.4 | 
2 | CC(n1c(=O)n(-c2cccc(OC(F)(F)C(F)F)c2)c2ccc(C(=O)NC3(C)CS(=O)(=O)C3)cc21)C(C)(C)O (single isomer, unassigned) [Example 76b, 3-(3-hydroxy-3-methylbutan-2-yl)-N-(3-methyl-1,1-dioxidothietan-3-yl)-2-oxo-1-(3-(1,1,2,2-tetrafluoroethoxy)phenyl)-2,3-dihydro-1H-benzo[d]imidazole-5-carboxamide] | 7.9 | 
3 | CC(C)Oc1cccc(-n2c(=O)n(C(C)C)c3cc(C(=O)NC4(C)CS(=O)(=O)C4)ccc32)c1 [Example 6, 1-(3-isopropoxyphenyl)-3-isopropyl-N-(3-methyl-1,1-dioxo-thietan-3-yl)-2-oxo-benzimidazole-5-carboxamide] |  | 88
4 | CC(n1c(=O)n(-c2cc(OCC(F)F)ncc2F)c2cc(F)c(C(=O)NC3(C)CCS(=O)(=O)CC3)cc21)C(C)(C)O (single isomer, unassigned) [Example 74b, 1-(2-(2,2-difluoroethoxy)-5-fluoropyridin-4-yl)-6-fluoro-3-(3-hydroxy-3-methylbutan-2-yl)-N-(4-methyl-1,1-dioxidotetrahydro-2H-thiopyran-4-yl)-2-oxo-2,3-dihydro-1H-benzo[d]imidazole-5-carboxamide] | 6.5 | 
5 | CC(C)n1c(=O)n(-c2cccc(OC(F)(F)F)c2)c2ncc(C(=O)NC3(C)CCS(=O)(=O)CC3)cc21 [Example 92, 1-isopropyl-N-(4-methyl-1,1-dioxo-thian-4-yl)-2-oxo-3-[3-(trifluoromethoxy)phenyl]imidazo[4,5-b]pyridine-6-carboxamide] | 236 | 
6 | Cc1nnc(NC(=O)c2ccc3c(c2)n(C(C)C)c(=O)n3-c2cccc(OC(F)F)c2)s1 [Example 61, 1-(3-(difluoromethoxy)phenyl)-3-isopropyl-N-(5-methyl-1,3,4-thiadiazol-2-yl)-2-oxo-2,3-dihydro-1H-benzo[d]imidazole-5-carboxamide] | > 9990 | 
7 | CC(C)n1c(=O)n(-c2cccc(OC(F)F)c2)c2ccc(C(=O)NC3(C)CS(=O)(=O)C3)nc21 [Example 107, 1-(3-(difluoromethoxy)phenyl)-3-isopropyl-N-(3-methyl-1,1-dioxidothietan-3-yl)-2-oxo-2,3-dihydro-1H-imidazo[4,5-b]pyridine-5-carboxamide] |  | 1080
8 | CC(C)n1c(=O)n(-c2cccc(OC(F)(F)C(F)F)c2)c2ncc(C(=O)NC3(C)CCS(=O)(=O)CC3)cc21 [Example 87, 1-isopropyl-N-(4-methyl-1,1-dioxo-thian-4-yl)-2-oxo-3-[3-(1,1,2,2-tetrafluoroethoxy)phenyl]imidazo[4,5-b]pyridine-6-carboxamide] |  | 20
9 | Cc1nc2c(-n3c(=O)n(C(C)C)c4cc(C(=O)NC5(C)CS(=O)(=O)C5)ccc43)cccc2o1 [Example 48, 3-isopropyl-N-(3-methyl-1,1-dioxidothietan-3-yl)-1-(2-methylbenzo[d]oxazol-4-yl)-2-oxo-2,3-dihydro-1H-benzo[d]imidazole-5-carboxamide] | > 10000 | 
10 | CCOc1cc(-n2c(=O)n(C(C)C)c3cc(C(=O)N[C@]4(C)CCS(=O)(=O)C4)ccc32)c(F)cn1 [Example 18, (R)-1-(2-Ethoxy-5-fluoropyridin-4-yl)-3-isopropyl-N-(3-methyl-1,1-dioxidotetrahydrothiophen-3-yl)-2-oxo-2,3-dihydro-1H-benzo[d]imidazole-5-carboxamide] |  | 28
11 | CCOc1cccc(-n2c(=O)n(C(C)C)c3cc(C(=O)N[C@@]4(C)CCS(=O)(=O)C4)cnc32)c1 [Example 97, 3-(3-ethoxyphenyl)-1-isopropyl-N-[(3S)-3-methyl-1,1-dioxo-thiolan-3-yl]-2-oxo-imidazo[4,5-b]pyridine-6-carboxamide] | 154 | 

Continued, values first:

Row | IC50 (read-out: DGAT2 IC50) [nM] | IC50 (read-out: Human DGAT2 IC50) [nM] | Compound
12 | 257 |  | CC(C)n1c(=O)n(-c2cccc(OC(F)F)c2)c2ccc(C(=O)NC3(C)CCS(=O)(=O)CC3)c(F)c21 [Example 126, 1-(3-(Difluoromethoxy)phenyl)-4-fluoro-3-isopropyl-N-(4-methyl-1,1-dioxidotetrahydro-2H-thiopyran-4-yl)-2-oxo-2,3-dihydro-1H-benzo[d]imidazole-5-carboxamide]
13 | 1320 |  | CC(C)n1c(=O)n(-c2cccc(N(C)C)c2)c2ccc(C(=O)NC3(C)CCS(=O)(=O)CC3)cc21 [Example 54, 1-(3-(dimethylamino)phenyl)-3-isopropyl-N-(4-methyl-1,1-dioxidotetrahydro-2H-thiopyran-4-yl)-2-oxo-2,3-dihydro-1H-benzo[d]imidazole-5-carboxamide]
14 | 54 |  | CC(C)n1c(=O)n(-c2cccc(OC(F)F)c2)c2ccc(C(=O)NC3(C)CS(=O)(=O)C3)cc21 [Example 26, 1-[3-(difluoromethoxy)phenyl]-3-isopropyl-N-(3-methyl-1,1-dioxo-thietan-3-yl)-2-oxo-benzimidazole-5-carboxamide]
15 |  | 1380 | CC(C)n1c(=O)n(-c2cccc(OC(F)F)c2)c2ccc(C(=O)NC3(C)CCS(=O)(=O)CC3)c(Cl)c21 [Example 128, 4-chloro-1-(3-(difluoromethoxy)phenyl)-3-isopropyl-N-(4-methyl-1,1-dioxidotetrahydro-2H-thiopyran-4-yl)-2-oxo-2,3-dihydro-1H-benzo[d]imidazole-5-carboxamide]
16 |  | 191 | CC(C)n1c(=O)n(-c2cccc(OC(F)F)c2)c2ccc(C(=O)N[C@@]3(C)CCS(=O)(=O)C3)c(F)c21 [Example 124, (S)-1-(3-(Difluoromethoxy)phenyl)-4-fluoro-3-isopropyl-N-(3-methyl-1,1-dioxidotetrahydrothiophen-3-yl)-2-oxo-2,3-dihydro-1H-benzo[d]imidazole-5-carboxamide]
17 | 101 |  | CC(C(F)F)n1c(=O)n(-c2cccc(OC(F)F)c2)c2ccc(C(=O)NC3(C)CCS(=O)(=O)CC3)cc21 (single isomer, unassigned) [Example 45b, 1-(3-(Difluoromethoxy)phenyl)-3-(1,1-difluoropropan-2-yl)-N-(4-methyl-1,1-dioxidotetrahydro-2H-thiopyran-4-yl)-2-oxo-2,3-dihydro-1H-benzo[d]imidazole-5-carboxamide]
18 | 182 |  | CC(C)n1c(=O)n(-c2cccc(OC(F)F)c2)c2ccc(C(=O)NC3(C)CC(F)(F)C3)cc21 [Example 33, 1-[3-(difluoromethoxy)phenyl]-N-(3,3-difluoro-1-methyl-cyclobutyl)-3-isopropyl-2-oxo-benzimidazole-5-carboxamide]
19 |  | 2.1 | CC(C)n1c(=O)n(-c2cc(OC(F)F)ccc2F)c2ccc(C(=O)NC3(C)CCS(=O)(=O)CC3)cc21 [Example 79, 1-(5-(Difluoromethoxy)-2-fluorophenyl)-3-isopropyl-N-(4-methyl-1,1-dioxidotetrahydro-2H-thiopyran-4-yl)-2-oxo-2,3-dihydro-1H-benzo[d]imidazole-5-carboxamide]
